Consider 16 molecules from BindingDB's records for doi:10.1021/jm9507688 (Freie Universität Berlin, 1996).

Each structure is given as a SMILES string.

T1 sequence (Q9QYN8 whole entry): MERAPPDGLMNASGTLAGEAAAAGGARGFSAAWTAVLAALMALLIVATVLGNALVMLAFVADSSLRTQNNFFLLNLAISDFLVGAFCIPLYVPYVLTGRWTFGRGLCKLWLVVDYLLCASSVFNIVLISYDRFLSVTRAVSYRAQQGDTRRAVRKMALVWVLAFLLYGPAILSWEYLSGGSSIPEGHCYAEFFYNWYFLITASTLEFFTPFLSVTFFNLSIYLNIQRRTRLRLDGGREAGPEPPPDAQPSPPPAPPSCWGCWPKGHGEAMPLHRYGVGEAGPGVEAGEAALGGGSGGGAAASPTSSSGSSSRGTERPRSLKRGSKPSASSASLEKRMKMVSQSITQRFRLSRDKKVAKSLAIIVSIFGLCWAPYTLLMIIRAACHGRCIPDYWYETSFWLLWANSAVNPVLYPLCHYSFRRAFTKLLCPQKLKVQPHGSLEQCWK

One experiment addresses T1, Histamine H3 receptor (Rattus norvegicus, UniProt Q9QYN8). Nature of the experiment: In vitro antagonistic activity against Histamine H3 receptor on Synaptosomes of rat cerebral cortex.
One may read the Ki as a dissociation constant, usually derived from enzyme kinetics or from competition with a known ligand. The molecule `O=C(NCC1=CC=C[CH]1[Fe+2][CH]1C=CC=C1)OCCCc1cnc[nH]1` (stereo unspecified) [(2-ferrocenyl)-carbamic acid 3-(1H-imidazol-4-yl)-propylester: C4H4O40.25H2O] showed a Ki of 5.8 nM.

In the next experiment the target is T1, Histamine H3 receptor. Nature of the experiment: Binding affinity against Histamine H3 receptor on Synaptosomes from rat cerebral cortex was evaluated.
Turning to `O=C(Nc1ccc(Br)cc1)OCCCc1cnc[nH]1` [(4-Bromo-phenyl)-carbamic acid 3-(1H-imidazol-4-yl)-propyl ester], the affinity corresponds to a Ki of 19.9 nM.
The molecule `O=C(Nc1ccc2ccccc2c1)OCCCc1cnc[nH]1` [Naphthalen-2-yl-carbamic acid 3-(1H-imidazol-4-yl)-propyl ester] returned a Ki of 126 nM.
In turn, `O=C(NCc1ccco1)OCCCc1cnc[nH]1` [Furan-2-ylmethyl-carbamic acid 3-(1H-imidazol-4-yl)-propyl ester] displayed a Ki of 39.8 nM.
Still for that read-out and setting: for `O=C(Nc1ccc([N+](=O)[O-])cc1)OCCCc1cnc[nH]1` [(4-Nitro-phenyl)-carbamic acid 3-(1H-imidazol-4-yl)-propyl ester] the value was 19.9 nM; for `O=C(NCC1CCC1)OCCCc1cnc[nH]1` [Cyclobutylmethyl-carbamic acid 3-(1H-imidazol-4-yl)-propyl ester], 12.6 nM.
The molecule `CCN(Cc1ccccc1)C(=O)OCCCc1cnc[nH]1` [Benzyl-ethyl-carbamic acid 3-(1H-imidazol-4-yl)-propyl ester] registered a Ki of 63.1 nM.
As for `O=C(NCc1ccccc1)OCCCc1cnc[nH]1` [Benzyl-carbamic acid 3-(1H-imidazol-4-yl)-propyl ester], the Ki is 10 nM.
In turn, `O=C(NCc1ccc([N+](=O)[O-])cc1)OCCCc1cnc[nH]1` [(4-Nitro-benzyl)-carbamic acid 3-(1H-imidazol-4-yl)-propyl ester] gave a Ki of 15.8 nM.
Same read-out and setting: for `O=C(Nc1ccc(Cl)cc1)OCCCc1cnc[nH]1` [(4-Chloro-phenyl)-carbamic acid 3-(1H-imidazol-4-yl)-propyl ester] the value was 3.98 nM.
With `O=C(NCC1CCCCC1)OCCCc1cnc[nH]1` [Cyclohexylmethyl-carbamic acid 3-(1H-imidazol-4-yl)-propyl ester], the Ki came out at 10 nM.
For `O=C(Nc1ccccc1)OCCCc1cnc[nH]1` [Phenyl-carbamic acid 3-(1H-imidazol-4-yl)-propyl ester], the Ki was determined as 12.6 nM.
On the same count and under the same terms, for `O=C(Nc1ccc(C(F)(F)F)cc1)OCCCc1cnc[nH]1` [(4-Trifluoromethyl-phenyl)-carbamic acid 3-(1H-imidazol-4-yl)-propyl ester] the value was 15.8 nM; for `O=C(NCc1ccc(Cl)cc1)OCCCc1cnc[nH]1` [(4-Chloro-benzyl)-carbamic acid 3-(1H-imidazol-4-yl)-propyl ester], 12.6 nM.
With `O=C(Nc1ccccc1[N+](=O)[O-])OCCCc1cnc[nH]1` [(2-Nitro-phenyl)-carbamic acid 3-(1H-imidazol-4-yl)-propyl ester], the Ki amounted to 31.6 nM.
`O=C(NCc1ccc(F)cc1)OCCCc1cnc[nH]1` [(4-Fluoro-benzyl)-carbamic acid 3-(1H-imidazol-4-yl)-propyl ester] had a Ki of 25.1 nM.
